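A five-concentration, 48-hour dose response in 96-well plates underlies each endpoint, interpolated linearly between surrounding concentrations. At the GI50, growth is halved.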 Activity calls are given as the source filed them. Cut-off read from the data, not from the text of the source: active = GI50 up to about 1.1 µM and inactive = higher.
How the values were obtained:
Assay in all cases: growth of human tumour cells (NCI), 48 h
KM-20L2 = system: KM-20L2
DMS-114 = system: DMS-114
M19-MEL = system: M19-MEL
DMS-273 = system: DMS-273
RXF 631 = system: RXF 631
LXFL 529 = system: LXFL 529
XF498 = system: XF498
HOP-18 = system: HOP-18

Measured: GI50

C=C(C)C1CC=C(C(=O)O)CC1 (stereo not given)
inactive: KM-20L2 1410 µM | DMS-114 1360 µM | M19-MEL 1160 µM | DMS-273 1340 µM | RXF 631 839 µM | LXFL 529 1490 µM

O=C(Nc1ccccc1)n1cc(-c2ccccn2)c(N2CCOCC2)n1
inactive: KM-20L2 2.68 µM | DMS-114 5.36 µM | XF498 9.23 µM | M19-MEL 6.61 µM | DMS-273 3.44 µM | HOP-18 > 100 µM | LXFL 529 7.89 µM

CCCOCN1COCN/C1=N\C#N
inactive: KM-20L2 36.2 µM | DMS-114 22 µM | XF498 > 100 µM | M19-MEL 30.9 µM | DMS-273 18 µM | HOP-18 32.8 µM | LXFL 529 > 100 µM

COc1ccccc1/N=N/c1c(-c2ccccc2)nn(C(=O)CC(=O)Nc2cccc(C)c2)c1-c1ccccc1
inactive: KM-20L2 27.3 µM | DMS-114 14.7 µM | XF498 16.4 µM | M19-MEL 35.8 µM | DMS-273 34.5 µM | RXF 631 7.4 µM | HOP-18 > 100 µM | LXFL 529 15.4 µM

COc1ccc([C@@H]2OC(=O)C3C2C(=O)O[C@H]3c2ccc(OC)cc2)cc1 (stereo not given in full)
inactive: KM-20L2 > 100 µM | DMS-114 > 100 µM | XF498 > 100 µM | M19-MEL > 100 µM | DMS-273 > 100 µM | RXF 631 > 100 µM | HOP-18 > 100 µM | LXFL 529 > 100 µM

Cc1ccc(Sc2ccc(C)cc2[N+](=O)[O-])c([N+](=O)[O-])c1
inactive: KM-20L2 > 100 µM | DMS-114 > 100 µM | XF498 > 100 µM | M19-MEL > 100 µM | DMS-273 > 100 µM | HOP-18 > 100 µM | LXFL 529 > 100 µM

CN1C/C(=C\c2ccccc2)C2=NN(C(N)=S)[C@H](c3ccccc3)[C@@H]2C1
inactive: KM-20L2 55.6 µM | XF498 > 100 µM | M19-MEL 55.2 µM | DMS-273 47.4 µM | LXFL 529 29.4 µM

CCOC(=O)[C-]([N+]#N)[Si](C)(C)C
inactive: KM-20L2 > 100 µM | DMS-114 > 100 µM | XF498 56.9 µM | M19-MEL > 100 µM | DMS-273 > 100 µM | HOP-18 > 100 µM

O=C(O)CNc1c2ccccc2nc2ccccc12
inactive: KM-20L2 > 100 µM | DMS-114 60.4 µM | XF498 > 100 µM | DMS-273 > 100 µM | RXF 631 > 100 µM | LXFL 529 > 100 µM

NC(=O)C(=O)N/N=C1\C(=O)N(c2ccc(Cl)cc2Cl)C(=O)C1C(=O)Nc1ccc(Cl)cc1Cl (stereo not given)
inactive: KM-20L2 > 100 µM | DMS-114 > 100 µM | XF498 > 100 µM | M19-MEL > 100 µM | DMS-273 > 100 µM | HOP-18 76.9 µM | LXFL 529 > 100 µM

CC1OC(n2cc(C(F)(F)F)c(=O)[nH]c2=O)C=CC1=O (stereo not given)
inactive: KM-20L2 22.3 µM | XF498 16.6 µM | M19-MEL 20.3 µM | RXF 631 12.7 µM | LXFL 529 17.1 µM

O=C(COc1ccc(Cl)cc1)N1CCN(C(=O)COc2ccc(Cl)cc2)c2ccccc21
inactive: KM-20L2 > 100 µM | DMS-114 29.5 µM | XF498 24.5 µM | M19-MEL 38.1 µM | DMS-273 39.2 µM | HOP-18 71.3 µM | LXFL 529 37.4 µM

CC12CP(=O)(c3ccccc3)CC1C2(Cl)Cl (stereo not given)
inactive: KM-20L2 > 100 µM | DMS-114 > 100 µM | XF498 > 100 µM | M19-MEL > 100 µM | DMS-273 > 100 µM | HOP-18 > 100 µM | LXFL 529 > 100 µM

N#CC1(C=O)c2ccccc2C=CN1C(=O)c1ccccc1 (stereo not given)
inactive: KM-20L2 43.6 µM | DMS-114 19.8 µM | XF498 22 µM | M19-MEL 33.7 µM | DMS-273 49.2 µM | RXF 631 56.5 µM | HOP-18 41.4 µM | LXFL 529 33.3 µM

CC(=O)Nc1c(Nc2ccccc2)[nH]c(C)nc1=S
inactive: KM-20L2 > 100 µM | DMS-114 > 100 µM | XF498 > 100 µM | DMS-273 > 100 µM | LXFL 529 > 100 µM

O=C(C=P(c1ccccc1)(c1ccccc1)c1ccccc1)CC(=S)CC(=O)C=P(c1ccccc1)(c1ccccc1)c1ccccc1
inactive: KM-20L2 4.29 µM | DMS-114 3.41 µM | M19-MEL 4.57 µM | DMS-273 2.88 µM | RXF 631 > 100 µM | HOP-18 2.59 µM | LXFL 529 2.77 µM

CC(=O)OCC1OC(N2C(=O)C(=O)c3ccccc32)C(OC(C)=O)C(OC(C)=O)C1OC(C)=O (stereo not given)
inactive: KM-20L2 > 100 µM | DMS-114 > 100 µM | M19-MEL 91.2 µM | DMS-273 > 100 µM | RXF 631 > 100 µM | HOP-18 > 10 µM | LXFL 529 > 100 µM

CC(C)OC(=O)C1Cc2c([nH]c3ccccc23)C(c2ccccc2)N1 (stereo not given)
inactive: KM-20L2 > 100 µM | DMS-114 52.4 µM | XF498 > 100 µM | M19-MEL > 100 µM | DMS-273 > 100 µM | LXFL 529 79.6 µM

C[N+](C)(C)CC(=O)N/N=C(\CCC(=O)NCCc1ccccc1)CC(=O)c1ccccc1
inactive: KM-20L2 > 100 µM | DMS-114 > 100 µM | XF498 > 100 µM | M19-MEL > 100 µM | DMS-273 > 100 µM | HOP-18 > 100 µM | LXFL 529 > 100 µM

CC[C@H]1[C@@H](C)C=C[C@@H](C)N1S(=O)(=O)c1ccc(C)cc1
inactive: KM-20L2 > 100 µM | DMS-114 19.1 µM | XF498 14.1 µM | M19-MEL > 100 µM | DMS-273 > 100 µM | RXF 631 16.7 µM | LXFL 529 73.8 µM

CCOC12OC3=C(CC1CC1=C(CCC1=O)O2)C(=O)CC3 (stereo not given)
inactive: KM-20L2 > 100 µM | DMS-114 > 100 µM | M19-MEL > 100 µM | DMS-273 > 100 µM | RXF 631 > 100 µM | HOP-18 > 100 µM | LXFL 529 > 100 µM

Cc1c(Cl)ccc2[s+]snc12
inactive: KM-20L2 > 100 µM | XF498 25.3 µM | M19-MEL 33 µM | DMS-273 38.2 µM | RXF 631 33.4 µM | HOP-18 29 µM | LXFL 529 29.6 µM

O=C1C2C3C=C4c5ccccc5N(c5ccccc5)C4(C2C(=O)N1c1ccc(Cl)cc1)[C@H]1C(=O)N(c2ccc(Cl)cc2)C(=O)[C@@H]31 (stereo not given in full)
inactive: KM-20L2 > 100 µM | DMS-114 > 100 µM | XF498 > 100 µM | M19-MEL > 100 µM | DMS-273 > 100 µM | RXF 631 6.49 µM | HOP-18 > 100 µM | LXFL 529 > 100 µM

Reference: ChEMBL document CHEMBL1201862, “PubChem BioAssay data set” (2004)
